Data reported in patent US20120121540A1 (priority 2007, published 2012).

Assay: HCV replicon assay (luciferase reporter, ET cell line)
Assay type: cell-based
Conditions: Hepatitis C virus, HCV replicon luciferase activity in ET cells
How it was run: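 EC50 and, via WST-1 cytotoxicity, TC50 were fitted with a Hill-coefficient equation to % inhibition across 10 two-fold dilutions. Compounds at 0.1 nM-[…] with 0.5% DMSO were applied 24 h post-seeding to replicon-bearing ET cells (luc-ubi-neo/NS3-5B, adaptive mutations). Firefly luciferase signal was measured after 48-72 h.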

Row | SMILES | inhibition at 10 µM [%]
1 | O=C(c1nc2c(C(F)(F)F)cc(-c3ccoc3)cn2c1Cl)N1CC=C(c2ccccc2F)CC1 [Compound 555, (3-Chloro-6-furan-3-yl-8-trifluoromethyl-imidazo[1,2-a]pyridin-2-yl)-[4-(2-fluoro-phenyl)-3,6-dihydro-2H-pyridin-1-yl)-methanone] | 95.5
2 | O=C(c1nc2c(C(F)(F)F)cc(-c3ccoc3)cn2c1Cl)N1CCC(c2nccs2)CC1 [Compound 556, (3-Chloro-6-furan-3-yl-8-trifluoromethyl-imidazo[1,2-a]pyridin-2-yl)-(4-thiazol-2-yl-piperidin-1-yl)-methanone] | 99.5
3 | O=C(c1nc2c(C(F)(F)F)cc(-c3ccoc3)cn2c1Cl)N1CCC(c2cscn2)CC1 [Compound 557, (3-Chloro-6-furan-3-yl-8-trifluoromethyl-imidazo[1,2-a]pyridin-2-yl)-(4-thiazol-4-yl-piperidin-1-yl)-methanone] | 93
4 | O=C(c1nc2c(C(F)(F)F)cc(-c3ccoc3)cn2c1Cl)N1CC=C(c2c[nH]cn2)CC1 [Compound 558, (3-Chloro-6-furan-3-yl-8-trifluoromethyl-imidazo[1,2-a]pyridin-2-yl)-[4-(1H-imidazol-4-yl)-3,6-dihydro-2H-pyridin-1-yl]-methanone] | 89.3
5 | O=C(c1nc2c(C(F)(F)F)cc(-c3ccoc3)cn2c1Cl)N1CC=C(c2nccs2)CC1 [Compound 559, (3-Chloro-6-furan-3-yl-8-trifluoromethyl-imidazo[1,2-a]pyridine-2-yl)-(4-thiazol-2-yl-3,6-dihydro-2H-pyridin-1-yl)-methanone] | 99.1
6 | CCN(CC)C(=O)c1ccccc1C1=CCN(C(=O)c2nc3c(C(F)(F)F)cc(-c4ccoc4)cn3c2Cl)CC1 [Compound 560, 2-[1-(3-Chloro-6-furan-3-yl-8-trifluoromethyl-imidazo[1,2-a]pyridine-2-carbonyl)-1,2,3,6-tetrahydro-pyridin-4-yl]-N,N-diethyl-benzamide] | 80.9
7 | O=C(c1nc2c(C(F)(F)F)cc(-c3ccoc3)cn2c1Cl)N1CC=C(c2ccccc2CO)CC1 [Compound 561, (3-Chloro-6-furan-3-yl-8-trifluoromethyl-imidazo[1,2-a]pyridin-2-yl)-[4-(2-hydroxymethyl-phenyl)-3,6-dihydro-2H-pyridin-1-yl)-methanone] | 89.1
8 | COc1cccc(OC)c1C1=CCN(C(=O)c2nc3c(C(F)(F)F)cc(-c4ccoc4)cn3c2Cl)CC1 [Compound 562, (3-Chloro-6-furan-3-yl-8-trifluoromethyl-imidazo[1,2-a]pyridin-2-yl)-[4-(2,6-dimethoxy-phenyl)-3,6-dihydro-2H-pyridin-1-yl)-methanone] | 13.4
9 | N#Cc1ccccc1C1=CCN(C(=O)c2nc3c(C(F)(F)F)cc(-c4ccoc4)cn3c2Cl)CC1 [Compound 563, 2-[1-(3-Chloro-6-furan-3-yl-8-trifluoromethyl-imidazo[1,2-a]pyridine-2-carbonyl)-1,2,3,6-tetrahydro-pyridin-4-yl]-benzonitrile] | 97.4
10 | O=C(c1nc2c(C(F)(F)F)cc(-c3ccoc3)cn2c1Cl)N1CC=C(c2c(F)cccc2F)CC1 [Compound 564, (3-Chloro-6-furan-3-yl-8-trifluoromethyl-imidazo[1,2-a]pyridin-2-yl)-[4-(2,6-difluoro-phenyl)-3,6-dihydro-2H-pyridin-1-yl)-methanone] | 99
11 | N#Cc1cccc(F)c1C1=CCN(C(=O)c2nc3c(C(F)(F)F)cc(-c4ccoc4)cn3c2Cl)CC1 [Compound 565, 2-[1-(3-Chloro-6-furan-3-yl-8-trifluoromethyl-imidazo[1,2-a]pyridine-2-carbonyl)-1,2,3,6-tetrahydro-pyridin-4-yl]-3-fluoro-benzonitrile] | 98
12 | O=C(c1nc2c(C(F)(F)F)cc(-c3ccoc3)cn2c1Cl)N1CC=C(c2cscn2)CC1 [Compound 566] | 99.4
13 | C#Cc1ccccc1C1=CCN(C(=O)c2nc3c(C(F)(F)F)cc(-c4ccoc4)cn3c2Cl)CC1 [Compound 567, (3-Chloro-6-furan-3-yl-8-trifluoromethyl-imidazo[1,2-a]pyridin-2-yl)-[4-(2-ethynyl-phenyl)-3,6-dihydro-2H-pyridin-1-yl)-methanone] | 81.3
14 | O=C(c1nc2c(C(F)(F)F)cc(-c3ccoc3)cn2c1Cl)N1CC=C(c2cncs2)CC1 [Compound 568] | 98.8
15 | N#Cc1ccc(F)cc1C1=CCN(C(=O)c2nc3c(C(F)(F)F)cc(-c4ccoc4)cn3c2Cl)CC1 [Compound 569, 2-[1-(3-Chloro-6-furan-3-yl-8-trifluoromethyl-imidazo[1,2-a]pyridine-2-carbonyl)-1,2,3,6-tetrahydro-pyridin-4-yl]-4-fluoro-benzonitrile] | 85.3
16 | N#Cc1cc(F)ccc1C1=CCN(C(=O)c2nc3c(C(F)(F)F)cc(-c4ccoc4)cn3c2Cl)CC1 [Compound 570, 2-[1-(3-Chloro-6-furan-3-yl-8-trifluoromethyl-imidazo[1,2-a]pyridine-2-carbonyl)-1,2,3,6-tetrahydro-pyridin-4-yl]-5-fluoro-benzonitrile] | 89.1
17 | O=C(c1nc2c(C(F)(F)F)cc(-c3ccoc3)cn2c1Cl)N1CC=C(c2ncccc2F)CC1 [Compound 571, (3-Chloro-6-furan-3-yl-8-trifluoromethyl-imidazo[1,2-a]pyridin-2-yl)-(3-fluoro-3′,6′-dihydro-2′H-[2,4′]bipyridinyl-1′-yl)-methanone] | 97.8
18 | O=C(c1nc2c(C(F)(F)F)cc(-c3ccoc3)cn2c1Cl)N1CC=C(c2ccncc2F)CC1 [Compound 572, (3-Chloro-6-furan-3-yl-8-trifluoromethyl-imidazo[1,2-1]pyridine-2-yl)-(3′-fluoro-3,6-dihydro-2H-[4,4′]bipyridinyl-1-yl)-methanone] | 98.2
19 | O=C(c1nc2c(C(F)(F)F)cc(-c3ccoc3)cn2c1Cl)N1CC=C(c2ncc(CO)s2)CC1 [Compound 573, (3-Chloro-6-furan-3-yl-8-trifluoromethyl-imidazo[1,2-a]pyridine-2-yl)-[4-(5-hydroxymethyl-thiazol-2-yl)-3,6-dihydro-2H-pyridin-1-yl]-methanone] | 91.2
20 | O=C(c1nc2c(C(F)(F)F)cc(-c3ccoc3)cn2c1Cl)N1CC=C(OS(=O)(=O)C(F)(F)F)CC1 [Compound 574, Trifluoro-methanesulfonic Acid 1-(3-chloro-6-furan-3-yl-8-trifluoromethyl-imidazo[1,2-a]pyridine-2-carbonyl)-1,2,3,6-tetrahydro-pyridin-4-yl Ester] | 79.1
21 | O=C(c1nc2c(C(F)(F)F)cc(-c3ccoc3)cn2c1Cl)N1CC=C(c2ccoc2)CC1 [Compound 575, (3-Chloro-6-furan-3-yl-8-trifluoromethyl-imidazo[1,2-a]pyridine-2-yl)-(4-furan-3-yl-3,6-dihydro-2H-pyridin-1-yl)-methanone] | 94.3
22 | O=C(c1nc2c(C(F)(F)F)cc(-c3ccoc3)cn2c1Cl)N1CC=C(c2cccc(F)c2)CC1 [Compound 576, (3-Chloro-6-furan-3-yl-8-trifluoromethyl-imidazo[1,2-a]pyridin-2-yl)-[4-(3-fluoro-phenyl)-3,6-dihydro-2H-pyridin-1-yl)-methanone] | 82.6
23 | CN(C)S(=O)(=O)c1ccccc1C1=CCN(C(=O)c2nc3c(C(F)(F)F)cc(-c4ccoc4)cn3c2Cl)CC1 [Compound 577, 2-[1-(3-Chloro-6-furan-3-yl-8-trifluoromethyl-imidazo[1,2-a]pyridin-2-carbonyl)-1,2,3,6-tetrahydro-pyridin-4-yl)-N,N-dimethyl-benzenesulfonamide] | 71.2
24 | Cn1cc(C2=CCN(C(=O)c3nc4c(C(F)(F)F)cc(-c5ccoc5)cn4c3Cl)CC2)cn1 [Compound 578, (3-Chloro-6-furan-3-yl-8-trifluoromethyl-imidazo[1,2-a]pyridin-2-yl)-[4-(1-methyl-1H-pyrazol-4-yl)-3,6-dihydro-2H-pyridin-1-yl)-methanone] | 97.2
25 | O=C(c1nc2c(C(F)(F)F)cc(-c3ccoc3)cn2c1Cl)N1CC=C(c2cn[nH]c2)CC1 [Compound 579, (3-Chloro-6-furan-3-yl-8-trifluoromethyl-imidazo[1,2-a]pyridin-2-yl)-[4-(1-1H-pyrazol-4-yl)-3,6-dihydro-2H-pyridin-1-yl)-methanone] | 97.6
26 | O=C(c1nc2c(C(F)(F)F)cc(-c3ccoc3)cn2c1Cl)N1CC=C(c2cccnc2F)CC1 [Compound 581, (3-Chloro-6-furan-3-yl-8-trifluoromethyl-imidazo[1,2-a]pyridin-2-yl)-(2-fluoro-3′,6′-dihydro-2′H-[3,4′]bipyridinyl-1′-yl)-methanone] | 98.2
27 | O=C(c1nc2c(C(F)(F)F)cc(-c3ccoc3)cn2c1Cl)N1CC=C(c2cnoc2)CC1 [Compound 582, (3-Chloro-6-furan-3-yl-8-trifluoromethyl-imidazo[1,2-a]pyridin-2-yl)-(4-isoxazol-4-yl-3,6-dihydro-2H-pyridin-1-yl)-methanone] | 91.2
28 | O=C(c1nc2c(C(F)(F)F)cc(-c3ccoc3)cn2c1Cl)N1CC=C(c2cc[nH]c2)CC1 [Compound 583, (3-Chloro-6-furan-3-yl-8-trifluoromethyl-imid azo[1,2-a]pyridin-2-yl)-[4-(1H-pyrrol-3-yl)-3,6-dihydro-2H-pyridin-1-yl]-methanone] | 67.9
29 | O=C(c1nc2c(C(F)(F)F)cc(-c3ccoc3)cn2c1Cl)N1CC=C(c2ccn[nH]2)CC1 [Compound 584, (3-Chloro-6-furan-3-yl-8-trifluoromethyl-imidazo[1,2-a]pyridin-2-yl)-[4-(2H-pyrazol-3-yl)-3,6-dihydro-2H-pyridin-1-yl]methanone] | 72.5
30 | CC(=O)c1ccc(C2=CCN(C(=O)c3nc4c(C(F)(F)F)cc(-c5ccoc5)cn4c3Cl)CC2)s1 [Compound 585, 1-{5-[1-(3-Chloro-6-furan-3-yl-8-trifluoromethyl-imidazo[1,2-a]pyridine-2-carbonyl)-1,2,3,6-tetrahydro-pyridin-4-yl]-thiophen-2-yl}-ethanone] | 93.2
